Measured values reported in ChEMBL document CHEMBL3751779, “Amides of non-steroidal anti-inflammatory drugs with thiomorpholine can yield hypolipidemic agents with improved anti-inflammatory activity” (Bioorg Med Chem Lett, 2016).

Tests used:
Format in all cases: functional
Rattus norvegicus [1] = test: Anti-inflammatory activity in rat assessed as reduction of carrageenan-induced paw edema at 150 umol/kg, ip after 3.5 hrs relative to control
Rattus norvegicus [2] = test: Antihyperlipidemic activity in rat assessed as reduction of tyloxapol-induced plasma triglyceride level at 150 umol/kg, ip after 24 hrs relative to control
Rattus norvegicus [3] = test: Antihyperlipidemic activity in rat assessed as reduction of tyloxapol-induced plasma total cholesterol level at 150 umol/kg, ip after 24 hrs relative to control
Rattus norvegicus [4] = test: Antihyperlipidemic activity in rat assessed as reduction of tyloxapol-induced plasma low density lipoprotein cholesterol level at 150 umol/kg, ip after 24 hrs relative to control

Row | SMILES | inhibition in vivo at 150 µmol/kg (Rattus norvegicus [1]) [%] | inhibition in vivo at 150 µmol/kg (Rattus norvegicus [2]) [%] | inhibition in vivo at 150 µmol/kg (Rattus norvegicus [3]) [%] | inhibition in vivo at 150 µmol/kg (Rattus norvegicus [4]) [%]
1 | CC(C(=O)N1CCSCC1)c1cccc(C(=O)c2ccccc2)c1 (stereo unspecified) | 60 | 43 | 49 | 64.9
2 | O=C(Cc1ccccc1Nc1c(Cl)cccc1Cl)N1CCSCC1 | 40 | 46.4 | 44.1 | 70.8
3 | O=C(c1ccccc1Nc1cccc(C(F)(F)F)c1)N1CCSCC1 | 44 | 54.1 | 52.8 | 64.2
4 | O=C(CCCCC1CCSS1)N1CCSCC1 (stereo unspecified) | 59 | – | – | –
5 | Cc1c(Cl)cccc1Nc1ccccc1C(=O)N1CCSCC1 | 45 | 80 | 65.9 | 70.5
6 | CC(C)Cc1ccc(C(C)C(=O)N2CCSCC2)cc1 (stereo unspecified) | 41 | 64.2 | 60.3 | 57.6
7 | COc1ccc2cc(C(C)C(=O)N3CCSCC3)ccc2c1 (stereo unspecified) | 62 | 61.3 | 57.8 | 81.4
8 | O=C(Cc1c[nH]c2ccccc12)N1CCSCC1 | 29 | – | – | –
9 | Cc1cccc(Nc2ccccc2C(=O)N2CCSCC2)c1C | 46 | 81.5 | 80.5 | 71.3
10 | COc1ccc2c(c1)c(CC(=O)N1CCSCC1)c(C)n2C(=O)c1ccc(Cl)cc1 | 38 | 79.5 | 73 | 83
11 | O=C(O)Cc1ccccc1Nc1c(Cl)cccc1Cl [DICLOFENAC] | 37 | – | – | –
12 | O=C(O)c1ccccc1Nc1cccc(C(F)(F)F)c1 [FLUFENAMIC ACID] | 19 | – | – | –
13 | CC(C)Cc1ccc(C(C)C(=O)O)cc1 (stereo unspecified) [IBUPROFEN] | 36 | – | – | –
14 | COc1ccc2c(c1)c(CC(=O)O)c(C)n2C(=O)c1ccc(Cl)cc1 [INDOMETHACIN] | 42 | – | – | –
15 | Cc1cccc(Nc2ccccc2C(=O)O)c1C [MEFENAMIC ACID] | 44 | – | – | –
16 | COc1ccc2cc([C@H](C)C(=O)O)ccc2c1 [NAPROXEN] | 11 | – | – | –
17 | Cc1c(Cl)cccc1Nc1ccccc1C(=O)O [TOLFENAMIC ACID] | 24 | – | – | –
